For 21 compounds, AC50 cell viability and efficacy results are on record in the supplement of paper PMC10290057.

The test system of experiment [1] is HCT116. Kind of experiment: AC50 cell viability (CellTiter-Glo); higher = less potent. Conditions: 48 h. (Cellular ATP, detected with luciferase, serves as a proxy for viable cell number.)
For experiment [2], the system named is HCT116. Kind of experiment: efficacy (fitted maximal change in viability relative to DMSO control); higher = less cytotoxic (negative = loss of viability). The settings on record: 48 h.

Structures are written as SMILES.
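Throughout, for AC50 cell viability (CellTiter-Glo): HCT116 colorectal carcinoma cells screened at five concentrations per compound, luminescent viability scaled between DMSO wells and empty wells on each plate, curves fitted per compound.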
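Throughout, for efficacy (fitted maximal change in viability relative to DMSO control): Luminescence-based viability readout, five doses per compound, normalized against on-plate DMSO and empty-well controls, followed by dose-response curve fitting for every drug.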

`c1cc(N[C@@H]2CCNC2)nc(-c2cnc3ccc(-c4cn[nH]c4)cn23)c1`: the AC50 cell viability in the experiment on HCT116 [1] was 7.42 µM. Moreover, the efficacy in the experiment on HCT116 [2] is -59.7%.

On to `CC(C)(C)C[C@H]1N[C@@H](C(=O)N[C@H]2CC[C@H](O)CC2)[C@H](c2cccc(Cl)c2F)[C@@]12C(=O)Nc1cc(Cl)ccc12`, for which the AC50 cell viability in the experiment on HCT116 [1] worked out at 4.17 µM. Further, in the experiment with HCT116 [2], the efficacy is -91.1%.

`Cc1cc(I)ccc1Nc1c(C(=O)NOCC2CC2)cc(F)c(F)c1F` had an AC50 cell viability in the experiment on HCT116 [1] of 4.68 µM. Further, the efficacy in the experiment on HCT116 [2] was -95.1%.

Consider `CCc1cccc(CC)c1NC(=O)N1Cc2[nH]nc(NC(=O)c3ccc(N4CCN(C)CC4)cc3)c2C1`, for which, in the experiment with HCT116 [1], the AC50 cell viability stood at 11.8 µM. Besides, in the experiment with HCT116 [2], the efficacy was -88.9%.

For `CCCCOc1c(C(=O)c2c(F)cc(C)cc2F)cnc2[nH]ncc12`, in the experiment with HCT116 [1], the AC50 cell viability was found to be 1.32 µM. Moreover, the efficacy in the experiment on HCT116 [2] was -75.8%.

The compound `CCNC(=O)c1cc2c(-c3cc(OCCN4CCCC4)c(Cl)cc3Cl)nc(N)nc2s1` returned an AC50 cell viability in the experiment on HCT116 [1] of 0.456 µM. In addition, the efficacy with HCT116 [2] is -57.9%.

Consider `CN(C)CC(=O)N1CCC(CC1)C2=CC=C(NC(=O)C3=NC(=C[NH]3)C#N)C(=C2)\C4=C\CCCC4`, for which the AC50 cell viability with HCT116 [1] stood at 16.6 µM. Moreover, the efficacy in the experiment on HCT116 [2] is -80.1%.

Regarding `CN(C)Cc1cccc(N/C(=C2\C(=O)Nc3cc(C(=O)N(C)C)ccc32)c2ccccc2)c1`, in the experiment on HCT116 [1], the AC50 cell viability was found to be 13.2 µM. Further, the efficacy in the experiment with HCT116 [2] is -69.8%.

In the experiment with HCT116 [1], `Cc1nn(Cc2ccccc2Cl)c(C)c1CN(C)CC(O)COc1ccc(Cl)cc1` (configuration not stated) yielded an AC50 cell viability of 18.6 µM. For the same compound, the efficacy in the experiment with HCT116 [2] is -92.3%.

The compound `CN1CCN(c2cccc(Nc3nc4c(-c5ccc([S+](C)(=O)[O-])cc5)cccn4n3)c2)CC1` yielded an AC50 cell viability in the experiment on HCT116 [1] of 16.6 µM. The efficacy in the experiment with HCT116 [2] is -121%.

Turning to `CNC(=O)c1ccccc1Nc1nc(Nc2ccc3c(c2OC)CCC[C@@H](N2CCN(CCO)CC2)C3)ncc1Cl`, the AC50 cell viability in the experiment on HCT116 [1] stood at 4.17 µM. For the same compound, the efficacy with HCT116 [2] was -110%.

Compound `CNC(=O)Cn1cc(-c2ccc3c(c2)C(F)CC32NC(=O)N(CC(=O)N(Cc3ccc(F)cc3)C(C)C(F)(F)F)C2=O)cn1` (configuration not stated) returned an AC50 cell viability in the experiment on HCT116 [1] of 0.934 µM. Besides, the efficacy in the experiment on HCT116 [2] is -51.2%.

`CNc1nc(-c2ccc3c(N)n[nH]c3c2)cc(N2C[C@@H](C(=O)NC3CCCCC3)CC[C@H]2C)n1`: the AC50 cell viability with HCT116 [1] came out at 18.6 µM. Moreover, the efficacy in the experiment on HCT116 [2] was -110%.

Take `COc1cc2nc(-c3ccc(N4CCN(C)CC4)cc3)nc(NCCN3CCOCC3)c2cc1OC`: in the experiment on HCT116 [1], the AC50 cell viability is 2.95 µM. The efficacy in the experiment on HCT116 [2] was -87.2%.

`COc1ccc(-c2cc3c(C)nc(N)nc3n([C@H]3CC[C@H](OCCO)CC3)c2=O)cn1` had an AC50 cell viability with HCT116 [1] of 0.332 µM. In the experiment on HCT116 [2], the efficacy was -71.8%.

Compound `COc1ccc(CCN(C)CCCOc2ccc([S+](=O)([O-])c3c(C(C)C)c4ccccc4n3C)cc2)cc1OC` gave an AC50 cell viability with HCT116 [1] of 8.33 µM. Also, in the experiment with HCT116 [2], the efficacy was -91.8%.

`Cc1ccc(-c2ccc3c(ccc4sc5c(c43)NC[C@@H](C)NC5=O)n2)cn1`: the AC50 cell viability in the experiment with HCT116 [1] is 20.9 µM. Further, in the experiment on HCT116 [2], the efficacy was -96.2%.

`C[S+](=O)([O-])N1CCc2c(-c3cnc(N)nc3)nc(N3CCOCC3)nc21` yielded an AC50 cell viability with HCT116 [1] of 0.661 µM. Besides, in the experiment with HCT116 [2], the efficacy is -56.8%.

`O=C(N[C@@H](c1ccccc1)[C@@H]1CCCCN1)c1cccc(C(F)(F)F)c1Cl`: the AC50 cell viability with HCT116 [1] is 20.9 µM. In addition, the efficacy with HCT116 [2] is -108%.

With `N[S+](=O)([O-])c1ccc(Cc2c(-c3cccc(-c4ccccc4)c3)nn(-c3nc(C(=O)O)cs3)c2CC2CC2)cc1`, the AC50 cell viability in the experiment on HCT116 [1] amounted to 14.8 µM. The efficacy with HCT116 [2] is -43.2%.

Turning to `O=C1CSC(=O)N1C(CCc1ccncc1)COc1ccc(-c2cccc([N+](=O)[O-])c2)cc1` (configuration not stated), the AC50 cell viability in the experiment on HCT116 [1] was determined as 2.63 µM. The efficacy in the experiment on HCT116 [2] is -32.9%.
